Measurements: patent US8420621B2, “Methods of using gamma cyclodextrin to control blood glucose and insulin secretion” (Abbott Laboratories, priority 2004, dated 2013)

Legend:
healthy adult subjects [1] = assay: Clinical study: gastrointestinal tolerance, stool frequency and consistency; format: in vivo, human
Protocol: For the pre-study tolerance test, subjects were instructed to not consume anything the day before that was known by them to cause gastrointestinal symptoms. They also completed an overnight 10-16 hour fast. The morning of the test visit, subjects reported to the study site and consumed 8 fl oz of one of the two study beverages within 10 minutes. The study beverage contained either 25 […] of maltodextrin or 25 grams of gamma-cyclodextrin. Subjects then resumed fasting. Subjects were allowed to leave the study site after the beverage had been consumed, however they were instructed to remain fasting for three hours from the time they began drinking the beverage. Subjects recorded gastrointestinal tolerance symptoms and stool frequency and consistency for 24 hours from the time they began drinking the study beverage. Upon subject completion of the gastrointestinal tolerance symptoms and stool frequency and consistency forms, the data were reviewed for signs of abnormal tolerance by a physician. The purpose of this symptom review was to determine if the product was generally well-tolerated. […] After the 180-minute blood and breath samples were collected, the subject was allowed to leave the study site and collect the remaining breath samples (hours 4-8) on their own. During the remainder of the breath collection period, the subject was instructed to refrain from sleep and exercise. Subjects were to remain fasting with the exception of an optional one or two 8 fl oz cans of Ensure® Plus. The flavor given to each subject was the same as that which was chosen for the pre-treatment meals, and the number of cans chosen remained constant for both treatments. Subjects were allowed to consume water as desired during this time. After completion of breath sample collection, subjects were free to resume their normal sleeping, eating, and exercise patterns. They continued to record gastrointestinal symptoms, stool frequency and consistency, and medication usage for the next 48 hours. […]

healthy adult subjects [2] = assay: Clinical study: postprandial plasma glucose response; format: in vivo, human
Source text: Thirty-two healthy adult subjects received two treatments in a double-masked, randomized, crossover design. The two treatments consisted of 50 g challenges of either maltodextrin or gamma-cyclodextrin. Blood samples were collected over a three-hour period, and breath samples collected over an eight-hour period following consumption of each carbohydrate. […] This study utilized a randomized, double-masked, crossover design, with a 4-14 day washout period between treatments. Before completing the two treatment visits, each subject completed one pre-study gastrointestinal tolerance test visit. Randomization was carried out by sealed envelopes stating which pre-study treatment was to be received, as well as in which sequence the two treatment visits were to be carried out. These envelopes were prepared from randomization schedules generated at Ross Products Division of Abbott Laboratories, Two product coordinators assigned an envelope from the top of the pile to each subject in the order that they passed all screening criteria and were given subject numbers. Besides carrying out randomization, the product coordinators were responsible for study product inventory and serving the appropriate product to subjects at each visit so that other study staff could not become aware of the study product identity. […] At each of the two treatment visits, subjects received 16 fl oz of a study product containing either 50 g of maltodextrin or 50 g of gamma-cyclodextrin. All beverages were served cold in styrofoam cups with lids and straws, labeled only with the subject number, subject initials and visit number, with the intention of hiding any slight differences in appearance that could be visible to study staff or subjects. On two separate treatment visits, subjects received, in random order, one of the two study beverages. Three days prior to each treatment visit, subjects recorded their food and beverage intake in a food diary. Subjects were required to consume ≧150 g of carbohydrate each day for three days prior to each treatment. Subjects were not to engage in vigorous exercise for 24 hours before each treatment. Subjects consumed an evening low residue Ensure® meal and completed a 10-16 hour overnight fast as detailed previously. […] A breath sample was collected for measurement of breath hydrogen. […] Plasma glucose was measured using an AccuChek Advantage Blood Glucose Monitoring System® (Roche Diagnostics, Indianapolis, Ind.). […] Positive incremental area under the plasma glucose response curve for two hours after each treatment will be calculated using the method of Wolever et al, The glycemic index: methodology and clinical implications, Amer. […]

OC[C@H]1O[C@@H]2O[C@H]3[C@H](O)[C@@H](O)[C@@H](O[C@H]4[C@H](O)[C@@H](O)[C@@H](O[C@H]5[C@H](O)[C@@H](O)[C@@H](O[C@H]6[C@H](O)[C@@H](O)[C@@H](O[C@H]7[C@H](O)[C@@H](O)[C@@H](O[C@H]8[C@H](O)[C@@H](O)[C@@H](O[C@H]9[C@H](O)[C@@H](O)[C@@H](O[C@H]1[C@H](O)[C@H]2O)O[C@@H]9CO)O[C@@H]8CO)O[C@@H]7CO)O[C@@H]6CO)O[C@@H]5CO)O[C@@H]4CO)O[C@@H]3CO [Gamma-Cyclodextrin, Gamma-cyclodextrin]
Gastrointestinal tolerance versus maltodextrin, pre-study tolerance test (healthy adult subjects [1]; 25 grams oral, 24 hours, reviewing physician): no significant differences
Stool frequency and consistency, difference between treatments (healthy adult subjects [1]; 50 g oral): no significant differences
Intensity and frequency of nausea, difference between treatments (healthy adult subjects [1]; first 24 hours after 50 g oral, crossover analysis): not significantly different
Plasma glucose area under the curve (AUC), effect versus maltodextrin (healthy adult subjects [2]; 50 g oral challenge): significantly reduced
Adjusted peak glucose, difference between treatments (healthy adult subjects [2]; 50 g oral, crossover analysis p<0.0001): significant difference
Positive incremental 120 min plasma glucose AUC (healthy adult subjects [2]; 50 g oral, mean±SEM, n=31): 133.2±16.5
Relative glycemic response compared with maltodextrin (healthy adult subjects [2]; baseline to 120 min, 50 g oral): 55%
